Here are results for three compounds from EP1858489B1, “METHODS AND COMPOSITIONS FOR MODIFIED RELEASE OF NUTRITIONAL SUPPLEMENTS” (Mannatech, Inc., priority 2005, dated 2006).

Data set [1] is described as follows: ORAC(o) assay: oxygen radical absorbance capacity by dissolved oxygen. Type of data set: biochemical. On the set-up: unit not given here. The note with it: quercetin sample at 10µg/mL. As to the method:
Method of Measuring Antioxidant Activity. In operation, the ORAC(o) assay of the present invention was used to evaluate antioxidant compositions, combinations and the like of solutions against a target molecule (linoleic acid) with oxygen present at equilibrium with the air. A free radical initiator is added and the time it takes for oxygen to disappear is measured, yielding the rate of disappearance. Trolox® is used as the standard, and a blank is run as a control. Amount of dissolved oxygen vs. time is plotted allowing direct comparison of net areas under the curve. A detailed method is as follows: Buffers (K2HPO4 (F.W. 174.2), NaH2PO4 (FW 120.0)) were obtained from Sigma (St. Louis, MO). […] HPLC grade acetone was obtained from Fisher (Hampton, NH). A YSI […] biological oxygen meter was obtained from YSI (Yellow Springs, Ohio) and used according to the manufacturer's specifications. ORAC(o) Method. The following stock solutions were used. […] Weigh 65.33g into 500mL of volumetric flask, and add dH20 to the mark. Concentration is 750 mM. Store 750 mM K2HPO4 stock solution in a refrigerator (2 to 8°C) equipped with a calibrated thermometer. Target temperature is 4°C. 750mM NaH2PO4 (FW 120.0); Weigh 45.00 g into 500 mL of volumetric flask, and add dH20 to the mark. […] Keep covered at room temperature until ready to use. […]

The nature of data set [2]: ORAC(fl) assay (fluorescein, method of Ou et al.). Type of data set: biochemical. The note with it: mixed at different ratios with quercetin; standard acetone:water solution. The procedure: Prior Art Method of Measuring Antioxidant Activity for Comparison. For the ORAC(fl) assay, the method of Ou et al. (Ou , B., Hampsch-Woodill, M. and Prior, R.L., J. Agric. Food Chem. 2001, 49, 4619-4626) was followed. Differences from the Ou procedure as published included the speed of the orbital shaker (Ou, 400 rpm; herein, 280 rpm), and the centrifuge speed (Ou, 14,000 rpm, 15 min; herein, 3200 rpm, 15 min and the length of the assay (Ou, 30 min; herein, 100 min). Fluorescein, sodium salt, was obtained from Aldrich (Milwaukee, WI). For the Ou method, a standard amount of fluorescein is added to an antioxidant product being tested, and the beginning level of fluorescence is measured. A free radical initiator is added, and the time and degree of disappearance of fluorescence are measured. Trolox®, 6-Hydroxy-2,5,7,8-tetramethylchroman-2-carboxylic Acid, is a cell-permeable, water-soluble derivative of vitamin E with potent antioxidant properties. Trolox® prevents peroxynitrite-mediated oxidative stress and apoptosis in rat thymocytes and is a synthetic antioxidant that is consistent from lot-to-lot and is used as the standard and run for comparison with each sample. A blank (control) used in calculations of the ORAC(o) value for each samples may be included in each run. Fluorescence vs. time is plotted. The blank (control) is subtracted from every curve. […]

The conditions of data set [3]: 37 °C at neutral pH; cited from earlier work.

Several values for one entry are separate records, joined by “and”; a condition that tells them apart may be missing. Equal values may be shown once. Entries after “also recorded” stand apart in the source; their conditions may differ.

In the case of `O=c1c(O)c(-c2ccc(O)c(O)c2)oc2cc(O)cc(O)c12` [quercetin], the “Area Under Curve (AUC)” value in data set [1] (each day an average of 3 runs, 5 day precision trial) is 202.7 and 212.9 and 187 and 202.9 and 213.1. Further, the Area under curve in data set [1] (single runs of single day precision trial) is 207.4 and 198.2 and 205 and 201.6 and 202.1. Turning to `Cc1c(C)c2c(c(C)c1O)CC[C@@](C)(CCC[C@H](C)CCC[C@H](C)CCCC(C)C)O2` [α-tocopherol], the “contribution of α-tocopherol to AO activity” value in data set [2] is recorded as “no contribution to AO activity; also recorded: no statistically significant activity”. In the case of `CC(C)(N=NC(C)(C)C(=N)N)C(=N)N.Cl.Cl` [AAPH, 2,2' azobis (2-amidinopropane) dihydrochloride], the half life entry in data set [3] is listed as “about 175 hours”.
